This note sets out measurements from US10766903B2 (ALMAC DISCOVERY LIMITED, priority 2016, dated 2020).

The target in the experiment is USP7 (Homo sapiens (Human), UniProt Q93009). In words: USP7 fluorescence polarisation (FP) biochemical assay, ubiquitin-Lys-TAMRA substrate. The note with it: average of at least duplicate experiments. The protocol: Measurement of USP7 Inhibitory Activity
USP7 activity was monitored in a fluorescence polarisation (FP) homogeneous assay using the isopeptide ubiquitin-Lys-TAMRA substrate (U-558, Boston Biochem). Full-length USP7 was purchased from Boston Biochem (His6-USP7FL, E-519). Unless otherwise stated, all other reagents were purchased from Sigma-Aldrich. Enzymatic reactions were conducted in black flat-bottom polystyrene 384-well plates (Nunc) and 15 μL total volume. USP7 (2.5 nM, 5 μL) was incubated in assay buffer (50 mM HEPES (pH 7.2), 150 mM NaCl, 0.5 mM EDTA, 5 mM DTT, 0.05% BSA (w/v), 0.05% CHAPS) in the presence or absence of inhibitor (5 μl). Inhibitors were stored as 10 mM DMSO stocks in an inert environment (low humidity, dark, low oxygen, room temperature) using a Storage Pod System and serial dilutions were prepared in buffer just prior to the assay (from 200 to 0.1 μM, 8 dp curve). […] FP was measured every 15 min over a period of 1.5 h (within the linear range of the assay) using a Synergy 4 plate reader (BioTek) exciting at 530 nm and measuring the amount of parallel and perpendicular light at 575 nm. The FP signal was subsequently normalised to the control without compound present.
In general terms: In fluorescence polarisation assays a small probe gives low polarisation when free and higher when bound to something large.

Where [1] appears, read: Table 4, biochemical assay, read-out: USP7 IC50.
Where [2] appears, read: USP7 IC50, Table 4, biochemical assay.

Structures can show the parent of a compound that is named as a salt. Where two headings read alike, the source gives them in different places.

USP7, sequence (Q93009 whole entry): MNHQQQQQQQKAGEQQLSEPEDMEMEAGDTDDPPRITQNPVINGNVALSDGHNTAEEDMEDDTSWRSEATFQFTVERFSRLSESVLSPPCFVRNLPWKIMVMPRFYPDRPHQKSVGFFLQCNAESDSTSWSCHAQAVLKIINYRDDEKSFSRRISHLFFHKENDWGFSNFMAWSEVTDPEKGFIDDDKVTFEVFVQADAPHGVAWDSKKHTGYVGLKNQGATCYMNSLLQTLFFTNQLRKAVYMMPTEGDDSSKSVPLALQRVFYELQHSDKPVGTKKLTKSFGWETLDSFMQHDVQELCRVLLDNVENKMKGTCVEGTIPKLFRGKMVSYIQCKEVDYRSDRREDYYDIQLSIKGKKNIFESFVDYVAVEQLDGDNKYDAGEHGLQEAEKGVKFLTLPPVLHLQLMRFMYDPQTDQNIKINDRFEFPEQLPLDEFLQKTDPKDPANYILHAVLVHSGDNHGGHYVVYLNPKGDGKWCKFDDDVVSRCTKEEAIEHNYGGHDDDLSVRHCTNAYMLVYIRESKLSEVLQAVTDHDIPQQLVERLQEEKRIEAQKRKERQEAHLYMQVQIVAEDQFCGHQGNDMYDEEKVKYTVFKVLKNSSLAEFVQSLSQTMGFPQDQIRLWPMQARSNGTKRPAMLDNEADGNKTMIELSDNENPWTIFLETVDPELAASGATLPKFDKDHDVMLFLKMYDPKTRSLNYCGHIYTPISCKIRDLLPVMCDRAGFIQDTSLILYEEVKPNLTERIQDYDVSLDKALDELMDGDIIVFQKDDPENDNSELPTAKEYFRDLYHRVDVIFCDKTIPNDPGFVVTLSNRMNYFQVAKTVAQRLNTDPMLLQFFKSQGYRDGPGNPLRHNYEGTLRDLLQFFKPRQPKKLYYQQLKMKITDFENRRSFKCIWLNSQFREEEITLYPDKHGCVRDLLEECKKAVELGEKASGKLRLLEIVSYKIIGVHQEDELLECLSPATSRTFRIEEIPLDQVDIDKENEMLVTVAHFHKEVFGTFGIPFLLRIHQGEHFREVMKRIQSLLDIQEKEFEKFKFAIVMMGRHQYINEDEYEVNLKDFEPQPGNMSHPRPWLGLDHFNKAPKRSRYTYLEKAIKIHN

The IC50 is the concentration at which inhibition is half-maximal. With `Cn1nc2c(=O)n(CC3(O)CCN(C(=O)C4(C)CC4)CC3)cnc2c1-c1ccc(CN)cc1` [Example 237, 3-(4-(Aminomethyl)phenyl)-6-((4-hydroxy-1-(1-methylcyclopropane-1-carbonyl)piperidin-4-yl)methyl)-2-methyl-2,6-dihydro-7H-pyrazolo[4,3-d]pyrimidin-7-one], the half-maximal inhibitory concentration (IC50) under setting [1] was 1 to 200 µM.
`C[C@H](CC(=O)N1CCC(O)(Cn2cnc(NCc3ccc(Cl)cc3)cc2=O)CC1)c1ccccc1` [Example 157, (R)-6-((4-chlorobenzyl)amino)-3-((4-hydroxy-1-(3-phenylbutanoyl)piperidin-4-yl)methyl)pyrimidin-4(3H)-one]: the half-maximal inhibitory concentration (IC50) under setting [1] lay within 1 to 200 µM.
Still for that read-out and setting: with `CN(C)CC#Cc1c2ncn(CC3(O)CCN(C(=O)C[C@H](c4ccccc4)C(F)(F)F)CC3)c(=O)c2nn1C` [Example 135, (R)-3-(3-(Dimethylamino)prop-1-yn-1-yl)-6-((4-hydroxy-1-(4,4,4-trifluoro-3-phenylbutanoyl)piperidin-4-yl)methyl)-2-methyl-2H-pyrazolo[4,3-d]pyrimidin-7(6H)-one] the figure was 1 to 200 µM.
For the compound `O=C(c1cnc(C2CC2)o1)N1CCC(O)(Cn2cnc3c(cc(Cl)n3-c3cccc(Br)c3)c2=O)CC1` [Example 213, 7-(3-Bromophenyl)-6-chloro-3-((1-(2-cyclopropyloxazole-5-carbonyl)-4-hydroxypiperidin-4-yl)methyl)-3H-pyrrolo[2,3-d]pyrimidin-4(7H)-one], the IC50 under setting [1] is less than 0.25 µM.
Consider `C[C@H](CC(=O)N1CCC(O)(Cn2cnc(N3CCC(N)CC3)cc2=O)CC1)c1ccccc1` [Example 48, (R)-6-(4-Aminopiperidin-1-yl)-3-((4-hydroxy-1-(3-phenylbutanoyl)piperidin-4-yl)methyl)pyrimidin-4(3H)-one hydrochloride], for which the 50% inhibitory concentration (IC50) under setting [2] was in the range of 0.25 to 0.999 µM.
As for `CN(C)Cc1ccc(-c2c3ncn(CC4(O)CCN(C(=O)C[C@H](c5ccccc5)C(F)(F)F)CC4)c(=O)c3nn2C)cc1` [Example 79, (R)-3-(4-((Dimethylamino)methyl)phenyl)-6-((4-hydroxy-1-(4,4,4-trifluoro-3-phenylbutanoyl)piperidin-4-yl)methyl)-2-methyl-2H-pyrazolo[4,3-d]pyrimidin-7(6H)-one], the IC50 under setting [1] is less than 0.25 µM.
For `C[C@H](CC(=O)N1CCC(O)(Cn2cnc(N3CCC[C@H](N)C3)cc2=O)CC1)c1ccccc1` [Example 47, 6-((S)-3-Aminopiperidin-1-yl)-3-((4-hydroxy-1-((R)-3-phenylbutanoyl)piperidin-4-yl)methyl)pyrimidin-4(3H)-one hydrochloride], the 50% inhibitory concentration (IC50) under setting [2] was 0.25 to 0.999 µM.
As for `C[C@H](CC(=O)N1CCC(O)(Cn2cnc(NCCN3CCCC3)c(Br)c2=O)CC1)c1ccccc1` [Example 45, (R)-5-Bromo-3-((4-hydroxy-1-(3-phenylbutanoyl)piperidin-4-yl)methyl)-6-((2-(pyrrolidin-1-yl)ethyl)amino)pyrimidin-4(3H)-one], under setting [1], the 50% inhibitory concentration (IC50) is 1 to 200 µM.
Take `O=C(CC(C1CC1)C1CC1)N1CCC(O)(Cn2cnc3c(nnn3-c3ccccc3)c2=O)CC1` [Example 187, 6-((1-(3,3-Dicyclopropylpropanoyl)-4-hydroxypiperidin-4-yl)methyl)-3-phenyl-3H-[1,2,3]triazolo[4,5-d]pyrimidin-7(6H)-one]: under setting [1], the half-inhibitory concentration (IC50) lay within 0.25 to 0.999 µM.
The same measure, in the same setting: for `C[C@H](CC(=O)N1CCC(O)(Cn2cnc3c(-c4cccc(C(=O)O)c4)n(C)nc3c2=O)CC1)c1ccccc1` [Example 244, (R)-3-(6-((4-Hydroxy-1-(3-phenylbutanoyl)piperidin-4-yl)methyl)-2-methyl-7-oxo-6,7-dihydro-2H-pyrazolo[4,3-d]pyrimidin-3-yl)benzoic Acid] the value was 1 to 200 µM.
On to `C[C@H](CC(=O)N1CCC(O)(Cn2cnc(Cl)cc2=O)CC1)c1ccccc1` [Example 1, (R)-6-Chloro-3-((4-hydroxy-1-(3-phenylbutanoyl)piperidin-4-yl)methyl)pyrimidin-4(3H)-one], for which the IC50 under setting [1] was in the range of 1 to 200 µM.
`Cc1nc2c(=O)n(CC3(O)CCN(C(=O)CC(C4CC4)C4CC4)CC3)cnc2n1-c1ccccc1` [Example 190, 1-((1-(3,3-Dicyclopropylpropanoyl)-4-hydroxypiperidin-4-yl)methyl)-8-methyl-9-phenyl-1H-purin-6(9H)-one]: the IC50 under setting [1] was 1 to 200 µM.
As to `O=C(c1cnc(C2CC2)o1)N1CCC(O)(Cn2cnc3c(cc(Cl)n3-c3ccccc3)c2=O)CC1` [Example 215, 6-Chloro-3-((1-(2-cyclopropyloxazole-5-carbonyl)-4-hydroxypiperidin-4-yl)methyl)-7-phenyl-3H-pyrrolo[2,3-d]pyrimidin-4(7H)-one], the half-maximal inhibitory concentration (IC50) under setting [1] was less than 0.25 µM.
On to `COCC(CC(=O)N1CCC(O)(Cn2cnc3c(-c4ccc(CN)cc4)n(C)nc3c2=O)CC1)c1ccccc1` (racemic) [Example 53, (R,S)-3-(4-(Aminomethyl)phenyl)-6-((4-hydroxy-1-(4-methoxy-3-phenylbutanoyl)piperidin-4-yl)methyl)-2-methyl-2H-pyrazolo[4,3-d]pyrimidin-7(6H)-one], for which the IC50 under setting [1] is less than 0.25 µM.
Turning to `C[C@H](CC(=O)N1CCC(O)(Cn2cnc(N3CCCC3CNC(=O)OC(C)(C)C)cc2=O)CC1)c1ccccc1` (stereo partly drawn) [Example 147, tert-butyl ((1-(1-((4-hydroxy-1-((R)-3-phenylbutanoyl)piperidin-4-yl)methyl)-6-oxo-1,6-dihydropyrimidin-4-yl)pyrrolidin-2-yl)methyl)carbamate], the half-maximal inhibitory concentration (IC50) under setting [1] was 1 to 200 µM.
The same measure, in the same setting: with `C[C@H](CC(=O)N1CCC(O)(Cn2cnc(N3CCC[C@@H]3CO)cc2=O)CC1)c1ccccc1` [Example 140, 3-((4-hydroxy-1-((R)-3-phenylbutanoyl)piperidin-4-yl)methyl)-6-((R)-2-(hydroxymethyl)pyrrolidin-1-yl)pyrimidin-4(3H)-one] the figure was 1 to 200 µM; with `C[C@H](CC(=O)N1CCC(O)(Cn2cnc(-c3cncnc3)cc2=O)CC1)c1ccccc1` [Example 102], 1 to 200 µM; with `C[C@H](CC(=O)N1CCC(O)(Cn2cnc(NCC3CCOCC3)cc2=O)CC1)c1ccccc1` [Example 163, (R)-3-((4-hydroxy-1-(3-phenylbutanoyl)piperidin-4-yl)methyl)-6-(((tetrahydro-2H-pyran-4-yl)methyl)amino)pyrimidin-4(3H)-one], 1 to 200 µM.
In the case of `Cn1nc2c(=O)n(CC3(O)CCN(C(=O)C[C@H](c4ccccc4)C(F)(F)F)CC3)cnc2c1-c1ccc(C2(N)CCC2)cc1` [Example 88, (R)-3-(4-(1-Aminocyclobutyl)phenyl)-6-((4-hydroxy-1-(4,4,4-trifluoro-3-phenylbutanoyl)piperidin-4-yl)methyl)-2-methyl-2H-pyrazolo[4,3-d]pyrimidin-7(6H)-one], the IC50 under setting [1] is less than 0.25 µM.
Same read-out and setting: for `C[C@H](CC(=O)N1CCC(O)(Cn2cnc(NCC(=O)N(C)C)cc2=O)CC1)c1ccccc1` [Example 161, (R)-2-((1-((4-hydroxy-1-(3-phenylbutanoyl)piperidin-4-yl)methyl)-6-oxo-1,6-dihydropyrimidin-4-yl)amino)-N,N-dimethylacetamide] the value was 1 to 200 µM; for `C[C@H](CC(=O)N1CCC(O)(Cn2cnc(NCc3ccc4c(c3)OCCO4)cc2=O)CC1)c1ccccc1` [Example 162, (R)-6-(((2,3-dihydrobenzo[b][1,4]dioxin-6-yl)methyl)amino)-3-((4-hydroxy-1-(3-phenylbutanoyl)piperidin-4-yl)methyl)pyrimidin-4(3H)-one], 1 to 200 µM.
Turning to `Cc1nc2c(=O)n(CC3(O)CCN(C(=O)C[C@@H](C)c4ccccc4)CC3)cnc2n1-c1ccccc1` [Example 188, (R)-1-((4-Hydroxy-1-(3-phenylbutanoyl)piperidin-4-yl)methyl)-8-methyl-9-phenyl-1H-purin-6(9H)-one], the IC50 under setting [1] is less than 0.25 µM.
Consider `C[C@H](CC(=O)N1CCC(O)(Cn2cnc(N3C[C@@H]4C[C@H]3CN(C)C4)cc2=O)CC1)c1ccccc1` (single isomer, unassigned) [Example 180], for which the IC50 under setting [2] was less than 0.25 µM.
In the case of `COc1ccc(-n2c(Cl)cc3c(=O)n(CC4(O)CCN(C(=O)C5(C)CC5)CC4)cnc32)cc1OC` [Example 239, 6-Chloro-7-(3,4-dimethoxyphenyl)-3-((4-hydroxy-1-(1-methylcyclopropane-1-carbonyl)piperidin-4-yl)methyl)-3,7-dihydro-4H-pyrrolo[2,3-d]pyrimidin-4-one], the half-maximal inhibitory concentration (IC50) under setting [1] was less than 0.25 µM.
Same read-out and setting: for `O=C(C(C1CCC1)C1CCC1)N1CCC(O)(Cn2cnc(NCCN3CCCC3)cc2=O)CC1` [Example 184, 3-((1-(2,2-Dicyclobutylacetyl)-4-hydroxypiperidin-4-yl)methyl)-6-((2-(pyrrolidin-1-yl)ethyl)amino)pyrimidin-4(3H)-one] the value was 1 to 200 µM.
On to `C[C@H](CC(=O)N1CCC(O)(Cn2cnc(N3CC[C@H](N(C)C)C3)cc2=O)CC1)c1ccccc1` [Example 62, 6-((S)-3-(Dimethylamino)pyrrolidin-1-yl)-3-((4-hydroxy-1-((R)-3-phenylbutanoyl)piperidin-4-yl)methyl)pyrimidin-4(3H)-one], for which the 50% inhibitory concentration (IC50) under setting [2] was 0.25 to 0.999 µM.
In the case of `C[C@H](CC(=O)N1CCC(O)(Cn2cnc(N3CC4CCOC4C3)cc2=O)CC1)c1ccccc1` (stereo partly drawn) [Example 153, 3-((4-hydroxy-1-((R)-3-phenylbutanoyl)piperidin-4-yl)methyl)-6-(tetrahydro-2H-furo[2,3-c]pyrrol-5(3H)-yl)pyrimidin-4(3H)-one], under setting [1], the half-maximal inhibitory concentration (IC50) is 1 to 200 µM.
